Test results: patent publication EP1826280A2 (priority 1992, dated 1994)

Test system: vascular smooth muscle cells
Assay: 24 hour 3H-leucine protein inhibition and 3H-thymidine DNA synthesis inhibition assays
Type: cell-based
Conditions: 24 hour exposure; for inhibition of DNA synthesis compared with protein synthesis: in the presence of 5% FBS
Description: The ability of various therapeutic agents to inhibit DNA synthesis and protein synthesis in vascular smooth muscle cells was tested. ^3H-leucine and ^3H-thymidine uptake and cytotoxicity assays were conducted in accordance with the following protocols.
^3H-leucine uptake: Vascular smooth muscle cells at 40,000 cells/ml were seeded in sterile 24 well plates at 1ml/well. The plates were incubated overnight at 37°C, 5% CO2, 95% air in a humidified atmosphere (saturation). Log dilutions of the therapeutic agent of interest were incubated with the vascular smooth muscle cells for 5 minutes or 24 hours. Samples of the therapeutic agents were diluted in DMEM:F-12 media (Whittaker Bioproducts, Walkersville, Maryland) with 5% fetal bovine serum (GBS, Gibco) and 5% Serum Plus® (JRH Biologicals). Following therapeutic agent incubation, the solution was aspirated, and 1ml/well of 0.5 microcurie/ml ^3H-leucine in leucine free DMEM (Dulbecco's Modified Eagle's Medium) with 5% Serum Plus® was added. The plates were re-incubated overnight at 37°C, 5% CO2 in a humidified atmosphere. The cells were visually graded using an inverted microscope using a scoring scale to determine viability and cell number. The 1 to 3 grade is based upon percent of cell viability and number compared to control wells, with 3=100%, 2=70%-100% and 1=0%-70%. A record of this scoring assisted in determining the immediate cytotoxic effect of the therapeutic agents. The media was then aspirated, and the cells were washed twice with cold 5% TCA. 400 microliters of 0.2M KaOH was added per well, and the plates were incubated for two hours at room temperature on a rotating platform. 200 microliters per well of the cell solution was transferred into plastic scintillation vials (Bio-Rad Laboratories), and 4 milliliters of Bio-Safe® II liquid scintillation fluid was added prior to vortexing. Vials were counted on a Beckman LS2600 Liquid scintillation Counter interfaced with Beckman "Data Capture" software for conversion to a Lotus 1-2-3® file and analysis using Lotus 1-2-3®.
^3H-thymidine uptake: Vascular smooth muscle cells were incubated in complete media with 5% FBS (Gibco) overnight at 37°C in a humidified, 5% CO2 environment in sterile 24 well plates. The media was aspirated from the wells and serum free media supplemented with growth factors (DMEM: F-12 basal media supplemented with growth factor cocktail catalog number I1884 which contains insulin (5 micrograms/ml), transferrin (5 micrograms/ml) and sodium selenite (5 nanograms/ml) available from Sigma Chemical, St. Louis, Missouri) was added. Cells were incubated in this media for 24 hours. For a 5 minute therapeutic agent exposure, log dilutions of the therapeutic agent were incubated with the cells in complete media. After 5 minutes and media aspiration, 1 ml/well of 1.0 microcurie/ml ^3H-thymidine dispersed in complete media was added. The 24 hour exposure involved incubation of the cells with 1 ml/well of 1.0 microcurie/ml of ^3H-thymidine dispersed in complete media and log dilutions of the therapeutic agent being tested. In both exposure trials, the cells were then incubated overnight at 37°C in a humidified, 5% CO2 environment. The cells were visually scored for viability and cell number. […] Vials were counted on a Beckman LS2800 Liquid Scintillation counter interfaced with Beckman "Data Capture" software for conversion to a Lotus 1-2-3® file and analysis using Lotus 1-2-3®.

| Structure (SMILES) | therapeutic range (area under the curve of 3H-leucine assay greater than that of 3H-thymidine assay) | inhibition of DNA synthesis compared with protein synthesis |
| --- | --- | --- |
| O=[N+]([O-])OCC(CO[N+](=O)[O-])O[N+](=O)[O-] [nitroglycerin] | showed an available therapeutic range | to a greater extent than they inhibited protein synthesis |
| CN[C@@H]1C[C@H]2O[C@@](C)([C@@H]1OC)n1c3ccccc3c3c4c(c5c6ccccc6n2c5c31)C(=O)NC4 [staurosporin] | showed an available therapeutic range |  |
| Cc1ccc(C(=O)Nc2ccc(S(=O)(=O)O)c3cc(S(=O)(=O)O)cc(S(=O)(=O)O)c23)cc1NC(=O)c1cccc(NC(=O)Nc2cccc(C(=O)Nc3cc(C(=O)Nc4ccc(S(=O)(=O)O)c5cc(S(=O)(=O)O)cc(S(=O)(=O)O)c45)ccc3C)c2)c1 [suramin] | showed an available therapeutic range | to a greater extent than they inhibited protein synthesis |
